Results as given in patent US11445724B2, “Insecticidal compounds” (SYNGENTA PARTICIPATIONS AG, priority 2013, dated 2022).

Tests used:
Format in all cases: in vivo
[1] = tested on: Diabrotica balteata (Corn root worm); assay: Diabrotica balteata (Corn root worm) larval mortality, artificial diet in 24-well MTP; settings: 120 h, application rate 200 ppm (concentration in well 18 ppm), L2 larvae, larval mortality after 5 days
[2] = tested on: Myzus persicae (Green peach aphid); assay: Myzus persicae (Green peach aphid) mortality, sprayed sunflower leaf discs; settings: foliar, 144 h, 200 ppm spray on sunflower leaf discs, mixed ages, mortality 6 DAT
[3] = tested on: Myzus persicae (Green peach aphid); assay: Myzus persicae (Green peach aphid) mortality, test compounds mixed with Sucrose solution under Parafilm; settings: 120 h, 12.5 ppm in Sucrose solution, infested pea seedlings on Parafilm, mortality 5 days after infestation
[4] = tested on: Plutella xylostella (Diamond back moth); assay: Plutella xylostella (Diamond back moth) larval mortality, artificial diet in 24-well MTP; settings: 144 h, application rate 200 ppm (concentration in well 18 ppm), L2 larvae, larval mortality after 6 days
[5] = tested on: Spodoptera littoralis (Egyptian cotton leafworm); assay: Spodoptera littoralis (Egyptian cotton leafworm) mortality, sprayed cotton leaf discs; settings: foliar, 72 h, 200 ppm spray on cotton leaf discs, L1 larvae, mortality 3 DAT
[6] = tested on: Tetranychus urticae (Two-spotted spider mite); assay: Tetranychus urticae (Two-spotted spider mite) mortality, sprayed bean leaf discs; settings: foliar, 192 h, 200 ppm spray on bean leaf discs, mixed ages, egg, larval and adult mortality after 8 days
[7] = tested on: Thrips tabaci (Onion thrips); assay: Thrips tabaci (Onion thrips) mortality, sprayed sunflower leaf discs; settings: foliar, 168 h, 200 ppm spray on sunflower leaf discs, mixed ages, mortality after 7 days

O=C(Nc1cccc(C(=O)Nc2c(Cl)cc(C(F)(C(F)(F)F)C(F)(F)F)cc2OC(F)F)c1F)c1ccccc1 [Compound 68]
≥ 80%: pest or weed control at 200 ppm [1] | pest or weed control at 200 ppm [2] | pest or weed control at 12.5 ppm [3] | pest or weed control at 200 ppm [4] | pest or weed control at 200 ppm [5] | pest or weed control at 200 ppm [6] | pest or weed control at 200 ppm [7]

O=C(Nc1cccc(C(=O)Nc2c(Cl)cc(C(F)(C(F)(F)F)C(F)(F)F)cc2OC(F)F)c1F)c1ccc([N+](=O)[O-])cc1Cl [Compound 57]
≥ 80%: pest or weed control at 200 ppm [1] | pest or weed control at 200 ppm [2] | pest or weed control at 12.5 ppm [3] | pest or weed control at 200 ppm [4] | pest or weed control at 200 ppm [5] | pest or weed control at 200 ppm [6] | pest or weed control at 200 ppm [7]

O=C(Nc1cccc(C(=O)Nc2c(Br)cc(C(F)(C(F)(F)F)C(F)(F)F)cc2OC(F)F)c1F)c1ccccc1 [Compound 31]
≥ 80%: pest or weed control at 200 ppm [1] | pest or weed control at 200 ppm [2] | pest or weed control at 12.5 ppm [3] | pest or weed control at 200 ppm [4] | pest or weed control at 200 ppm [5] | pest or weed control at 200 ppm [6] | pest or weed control at 200 ppm [7]

N#Cc1ccc(C(=O)Nc2cccc(C(=O)Nc3c(Br)cc(C(F)(C(F)(F)F)C(F)(F)F)cc3OC(F)F)c2F)cc1 [Compound 5]
≥ 80%: pest or weed control at 200 ppm [1] | pest or weed control at 200 ppm [2] | pest or weed control at 12.5 ppm [3] | pest or weed control at 200 ppm [4] | pest or weed control at 200 ppm [5] | pest or weed control at 200 ppm [6] | pest or weed control at 200 ppm [7]

COc1c(NC(=O)c2ccc([N+](=O)[O-])cc2)cccc1C(=O)Nc1c(Cl)cc(C(F)(C(F)(F)F)C(F)(F)F)cc1OC(F)F [Compound 81]
≥ 80%: pest or weed control at 200 ppm [1] | pest or weed control at 200 ppm [2] | pest or weed control at 12.5 ppm [3] | pest or weed control at 200 ppm [4] | pest or weed control at 200 ppm [5] | pest or weed control at 200 ppm [6] | pest or weed control at 200 ppm [7]

COc1c(NC(=O)c2ccc(C(F)(F)F)cc2)cccc1C(=O)Nc1c(Cl)cc(C(F)(C(F)(F)F)C(F)(F)F)cc1OC(F)F [Compound 89]
≥ 80%: pest or weed control at 200 ppm [1] | pest or weed control at 200 ppm [2] | pest or weed control at 12.5 ppm [3] | pest or weed control at 200 ppm [4] | pest or weed control at 200 ppm [5] | pest or weed control at 200 ppm [6] | pest or weed control at 200 ppm [7]

O=C(Nc1cccc(C(=O)Nc2c(Cl)cc(C(F)(C(F)(F)F)C(F)(F)F)cc2OC(F)F)c1F)c1ccc(F)c(C(F)(F)F)c1 [Compound 62]
≥ 80%: pest or weed control at 200 ppm [1] | pest or weed control at 12.5 ppm [3] | pest or weed control at 200 ppm [4] | pest or weed control at 200 ppm [5] | pest or weed control at 200 ppm [6]

O=C(Nc1cccc(C(=O)Nc2c(Cl)cc(C(F)(C(F)(F)F)C(F)(F)F)cc2OC(F)F)c1F)c1ccncc1 [Compound 15]
≥ 80%: pest or weed control at 200 ppm [1] | pest or weed control at 200 ppm [2] | pest or weed control at 12.5 ppm [3] | pest or weed control at 200 ppm [4] | pest or weed control at 200 ppm [5] | pest or weed control at 200 ppm [6] | pest or weed control at 200 ppm [7]

COc1c(NC(=O)c2ccccc2Cl)cccc1C(=O)Nc1c(Cl)cc(C(F)(C(F)(F)F)C(F)(F)F)cc1OC(F)F [Compound 79]
≥ 80%: pest or weed control at 200 ppm [1] | pest or weed control at 200 ppm [2] | pest or weed control at 200 ppm [4] | pest or weed control at 200 ppm [5] | pest or weed control at 200 ppm [6] | pest or weed control at 200 ppm [7]

COc1c(NC(=O)c2ccccc2C)cccc1C(=O)Nc1c(Br)cc(C(F)(C(F)(F)F)C(F)(F)F)cc1OC(F)F [Compound 35]
≥ 80%: pest or weed control at 200 ppm [1] | pest or weed control at 200 ppm [2] | pest or weed control at 200 ppm [4] | pest or weed control at 200 ppm [5] | pest or weed control at 200 ppm [6] | pest or weed control at 200 ppm [7]

COc1c(NC(=O)c2ccc(F)cc2C)cccc1C(=O)Nc1c(Br)cc(C(F)(C(F)(F)F)C(F)(F)F)cc1OC(F)F [Compound 43]
≥ 80%: pest or weed control at 200 ppm [1] | pest or weed control at 200 ppm [2] | pest or weed control at 200 ppm [4] | pest or weed control at 200 ppm [5] | pest or weed control at 200 ppm [6] | pest or weed control at 200 ppm [7]

Cc1ccccc1C(=O)Nc1cccc(C(=O)Nc2c(Cl)cc(C(F)(C(F)(F)F)C(F)(F)F)cc2OC(F)F)c1F [Compound 46]
≥ 80%: pest or weed control at 200 ppm [1] | pest or weed control at 200 ppm [4] | pest or weed control at 200 ppm [5] | pest or weed control at 200 ppm [6] | pest or weed control at 200 ppm [7]

COc1c(NC(=O)c2ccc(F)cc2F)cccc1C(=O)Nc1c(Br)cc(C(F)(C(F)(F)F)C(F)(F)F)cc1OC(F)F [Compound 71]
≥ 80%: pest or weed control at 200 ppm [1] | pest or weed control at 200 ppm [2] | pest or weed control at 200 ppm [4] | pest or weed control at 200 ppm [5] | pest or weed control at 200 ppm [6] | pest or weed control at 200 ppm [7]

O=C(Nc1cccc(C(=O)Nc2c(Cl)cc(C(F)(C(F)(F)F)C(F)(F)F)cc2OC(F)F)c1F)c1ccc(F)cc1Cl [Compound 74]
≥ 80%: pest or weed control at 200 ppm [1] | pest or weed control at 12.5 ppm [3] | pest or weed control at 200 ppm [4] | pest or weed control at 200 ppm [5] | pest or weed control at 200 ppm [6] | pest or weed control at 200 ppm [7]

COc1c(NC(=O)c2ccccc2C(F)(F)F)cccc1C(=O)Nc1c(Cl)cc(C(F)(C(F)(F)F)C(F)(F)F)cc1OC(F)F [Compound 94]
≥ 80%: pest or weed control at 200 ppm [1] | pest or weed control at 200 ppm [2] | pest or weed control at 200 ppm [4] | pest or weed control at 200 ppm [5] | pest or weed control at 200 ppm [6] | pest or weed control at 200 ppm [7]

COc1c(NC(=O)c2ccccc2C)cccc1C(=O)Nc1c(Cl)cc(C(F)(C(F)(F)F)C(F)(F)F)cc1OC(F)F [Compound 77]
≥ 80%: pest or weed control at 200 ppm [1] | pest or weed control at 200 ppm [4] | pest or weed control at 200 ppm [5] | pest or weed control at 200 ppm [6] | pest or weed control at 200 ppm [7]

CCN(C(=O)c1ccccc1OC)c1cccc(C(=O)Nc2c(Cl)cc(C(F)(C(F)(F)F)C(F)(F)F)cc2OC(F)F)c1OC [Compound 154]
≥ 80%: pest or weed control at 200 ppm [1] | pest or weed control at 200 ppm [4] | pest or weed control at 200 ppm [5] | pest or weed control at 200 ppm [6] | pest or weed control at 200 ppm [7]

O=C(Nc1cccc(C(=O)Nc2c(Cl)cc(C(F)(C(F)(F)F)C(F)(F)F)cc2OC(F)F)c1F)c1ccccc1Cl [Compound 48]
≥ 80%: pest or weed control at 200 ppm [1] | pest or weed control at 200 ppm [2] | pest or weed control at 200 ppm [4] | pest or weed control at 200 ppm [5] | pest or weed control at 200 ppm [6] | pest or weed control at 200 ppm [7]

CCN(C(=O)c1ccccc1Cl)c1cccc(C(=O)Nc2c(Cl)cc(C(F)(C(F)(F)F)C(F)(F)F)cc2OC(F)F)c1F [Compound 112]
≥ 80%: pest or weed control at 200 ppm [1] | pest or weed control at 200 ppm [2] | pest or weed control at 200 ppm [4] | pest or weed control at 200 ppm [5] | pest or weed control at 200 ppm [6] | pest or weed control at 200 ppm [7]

CCN(C(=O)c1ccccc1F)c1cccc(C(=O)Nc2c(Br)cc(C(F)(C(F)(F)F)C(F)(F)F)cc2OC(F)F)c1OC [Compound 129]
≥ 80%: pest or weed control at 200 ppm [1] | pest or weed control at 200 ppm [4] | pest or weed control at 200 ppm [5] | pest or weed control at 200 ppm [6] | pest or weed control at 200 ppm [7]

CCN(C(=O)c1ccc(F)cc1C)c1cccc(C(=O)Nc2c(Br)cc(C(F)(C(F)(F)F)C(F)(F)F)cc2OC(F)F)c1OC [Compound 133]
≥ 80%: pest or weed control at 200 ppm [1] | pest or weed control at 200 ppm [4] | pest or weed control at 200 ppm [5] | pest or weed control at 200 ppm [6] | pest or weed control at 200 ppm [7]

COc1c(NC(=O)c2ccc(F)cc2Cl)cccc1C(=O)Nc1c(Cl)cc(C(F)(C(F)(F)F)C(F)(F)F)cc1OC(F)F [Compound 95]
≥ 80%: pest or weed control at 200 ppm [1] | pest or weed control at 200 ppm [2] | pest or weed control at 200 ppm [4] | pest or weed control at 200 ppm [5] | pest or weed control at 200 ppm [6] | pest or weed control at 200 ppm [7]

COc1c(NC(=O)c2ccccc2Cl)cccc1C(=O)Nc1c(Br)cc(C(F)(C(F)(F)F)C(F)(F)F)cc1OC(F)F [Compound 37]
≥ 80%: pest or weed control at 200 ppm [1] | pest or weed control at 200 ppm [2] | pest or weed control at 200 ppm [4] | pest or weed control at 200 ppm [5] | pest or weed control at 200 ppm [6] | pest or weed control at 200 ppm [7]

CCN(C(=O)c1ccc([N+](=O)[O-])cc1Cl)c1cccc(C(=O)Nc2c(Cl)cc(C(F)(C(F)(F)F)C(F)(F)F)cc2OC(F)F)c1OC [Compound 152]
≥ 80%: pest or weed control at 200 ppm [1] | pest or weed control at 12.5 ppm [3] | pest or weed control at 200 ppm [4] | pest or weed control at 200 ppm [5] | pest or weed control at 200 ppm [6] | pest or weed control at 200 ppm [7]

COc1c(NC(=O)c2ccc(F)cc2F)cccc1C(=O)Nc1c(Cl)cc(C(F)(C(F)(F)F)C(F)(F)F)cc1OC(F)F [Compound 97]
≥ 80%: pest or weed control at 200 ppm [2] | pest or weed control at 200 ppm [4] | pest or weed control at 200 ppm [5] | pest or weed control at 200 ppm [6] | pest or weed control at 200 ppm [7]

COc1c(NC(=O)c2ccccc2)cccc1C(=O)Nc1c(Cl)cc(C(F)(C(F)(F)F)C(F)(F)F)cc1OC(F)F [Compound 92]
≥ 80%: pest or weed control at 200 ppm [1] | pest or weed control at 200 ppm [2] | pest or weed control at 200 ppm [4] | pest or weed control at 200 ppm [5] | pest or weed control at 200 ppm [6] | pest or weed control at 200 ppm [7]
